From article PMC5678437, “A new antagonist for CCR4 attenuates allergic lung inflammation in a mouse model of asthma” (Scientific Reports, 2017) come the findings set out here.

Like-named read-outs stand apart in the source and are kept apart here.

A word on the IC50: it is the midpoint of a concentration-inhibition curve.

The test system of assay [1] is OVA-induced asthmatic mice. Nature of the assay: Lung histology (H&E) inflammation score in OVA-induced asthmatic mice. The format is in vivo, BALB/c mice. The settings on record: 5 mg inhaled aerosol; vs OVA mice treated with vehicle. How it is done:
(§1) Male BALB/c 6 week old mice were purchased from the Experimental Animal Center of Zhejiang University. All mice were raised in a specific pathogen-free animal facility. All animal experiments were carried out according to the guidelines for the care and use of laboratory animals and were approved by the ethics committee of Zhejiang University and Peking University, China.
(§2) Mice were sensitized and challenged with chicken egg OVA (sigma-Aldrich, St Louis, MO, USA) as described in details previously. Briefly, after sensitized by intraperitoneal injection of 100 μl (80 μg) OVA in 100 μl alum (Pierce, Rockford, IL, USA) on days 0 and 14, mice were exposure to 1% OVA aerosols for 40 min on days 24–26. Control mice were injected intraperitoneally with saline and exposed to saline aerosols.
(§3) Compound 8a was dissolved in saline with DMSO (0.5%). Half an hour before each OVA challenge, the groups of mice treated with various doses of compound 8a (0.2, 1, 5 mg) inhaled aerosolized compound 8a for 45 min on days 24–26. Compound 8a aerosols were produced by using a Plexiglas chamber and ultrasonic nebulizer. […]
(§4) After sacrificed, the lungs were fixed in formalin overnight. […] Inflammation was scored according to published guidelines. And PAS-stained goblet cells in airway epithelium were quantified as described previously.

The test system of another assay is IL-4. Kind of assay: IL-4 in lung homogenate by ELISA in OVA-induced asthmatic mice. Format: in vivo, BALB/c mice. The conditions noted are these: 5 mg inhaled aerosol; after OVA challenge. How it is done:
as §1, §2
Compound 8a was dissolved in saline with DMSO (0.5%). Half an hour before each OVA challenge, the groups of mice treated with various doses of compound 8a (0.2, 1, 5 mg) inhaled aerosolized compound 8a for 45 min on days 24–26. […]
Twenty-four hours after the last challenge, lungs were removed from control or asthmatic mice, and they were cut into pieces and homogenized in 500 μl PBS, centrifuged (2000 rpm, 10 min) and the supernatant collected. The concentration of IL-4 in lungs were determined by ELISA kit (Sensitivity: 2 pg/ml, R&D Systems, Minneap-olis, MN, USA) following the manufacturer’s protocol.
A general note: An ELISA detects its analyte on a solid surface through an enzyme-linked reagent.

For assay [2], the system named is OVA-induced asthmatic mice. Kind of assay: BALF total cell and cell differential counts in OVA-induced asthmatic mice. The format is in vivo, BALB/c mice. On the procedure: as §1, §2
(§5) Compound 8a was dissolved in saline with DMSO (0.5%). Half an hour before each OVA challenge, the groups of mice treated with various doses of compound 8a (0.2, 1, 5 mg) inhaled aerosolized compound 8a for 45 min on days 24–26. Compound 8a aerosols were produced by using a Plexiglas chamber and ultrasonic nebulizer. While the budesonide (BUD) group were administered with 5 mg budesonide, and the vehicle group were treated with compound-dissolved vehicle. The Saline was treated as the control.
Twenty-four hours after the last exposure, collection of BALF and cell count was performed as previously described. Briefly, lavage was performed by instilling 0.4 ml PBS into lungs and with drawn to collect the cells three times. Total BALF cells were counted. After be centrifuged, the remaining cells was spun onto glass slides, and stained with Wright–Giemsa stain. Differential counts were evaluated by counting 400 total cells.

Assay [3] deals with OVA-induced asthmatic mice. Nature of the assay: Airway hyperresponsiveness to aerosolized methacholine in OVA-induced asthmatic mice. The format is in vivo, BALB/c mice. The settings on record: 5 mg inhaled aerosol, days 24-26; 24 h after final OVA challenge. How it is done:
as §1, §2, §5
Twenty-four hours after the last challenge, mice were anesthetized and tracheotomized with a cannula, then ventilated at a fixed breathing rate. Once being stabilized, mice were challenged via the airways with saline or increasing concentrations of Mch (1, 2, 4, 8, 16 mg/ml) by nebulization. Airway resistance was measured by FinePointe Series RC Sites (Buxco Research System). Changes in airway resistance were calculated for each Mch concentration.

In assay [4] the test system is OVA-induced asthmatic mice. Kind of assay: Airway mucus production (PAS staining) in OVA-induced asthmatic mice. Format: in vivo, BALB/c mice. The settings on record: compound 8a 0.2, 1, 5 mg; budesonide 5 mg; vs vehicle treated group. How it is done: as §1, §2, §3, §4
The target of another assay is T1, CCR4 (Homo sapiens, UniProt P51679).
T1 construct: expressed in transfected cells; cell membrane extract
T1 sequence (P51679 1-360): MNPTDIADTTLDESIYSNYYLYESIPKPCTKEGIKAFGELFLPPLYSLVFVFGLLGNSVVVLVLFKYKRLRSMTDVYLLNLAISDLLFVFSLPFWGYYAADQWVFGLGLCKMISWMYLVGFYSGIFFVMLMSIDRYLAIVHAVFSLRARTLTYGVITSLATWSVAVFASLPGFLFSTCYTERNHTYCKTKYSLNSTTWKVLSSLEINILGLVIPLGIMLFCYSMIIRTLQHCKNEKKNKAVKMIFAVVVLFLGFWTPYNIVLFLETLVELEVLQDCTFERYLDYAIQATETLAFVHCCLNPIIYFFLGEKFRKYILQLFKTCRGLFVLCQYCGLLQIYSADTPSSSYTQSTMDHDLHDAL
Kind of assay: Radio ligand competition binding assay on CCR4 cell membrane extract. The settings on record: HEK293 CCR4 cell membrane extract, 4 °C, 24 h. On the procedure: A HEK293 cell line stably expressing CCR4-enhanced green fluorescent protein was established. CCL22, CCL17 and C27 were labeled with [^125I]. For competition binding assays, equivalent quantities of cell membrane extract and [^125I]-CCL22, [^125I]-CCL17 and [^125I]-C27 were incubated with varying quantities of unlabeled compound 8a, compound 6b and compound 22. All reactions were incubated at 4 °C for 24 h. After the binding step, 25% polyethylene glycol (6000–8000) and 0.5% human g-globulin were added, and the mixture was incubated at room temperature for 15 min. Binding complexes were obtained by centrifuging the mixture at 3500 rpm for 20 min at 4 °C, and radioactivity was evaluated. Results were corrected for “blank” background radiation, defined as the radioactivity precipitated by polyethylene glycol–g-globulin from the same amount of radioactive ligand in binding buffer in the absence of cells.

[5] abbreviates: 5 mg inhaled aerosol, compared with vehicle treated group.
Where [6] appears, read: compound 8a 0.2, 1, 5 mg, budesonide 5 mg, inhaled aerosol.

With `CCCC1O[C@@H]2C[C@H]3[C@@H]4CCC5=CC(=O)C=C[C@]5(C)[C@H]4[C@@H](O)C[C@]3(C)[C@]2(C(=O)CO)O1` (some centres unmarked) [budesonide, reference compound], the “peribronchial and perivascular inflammation (H&E histology)” value in assay [1] is reported as “significantly attenuated”. In addition, the “expression of IL-4 in lungs (ELISA)” value in the assay with IL-4 is reported as “notably decreased”. For the same compound, in assay [2] (setting [5]), the “absolute number of eosinophils in BALF” value is reported as “significantly decreased” and the “absolute number of lymphocytes in BALF” value is listed as “significantly decreased”. In addition, in assay [2] (setting [6]), the “number of macrophages in BALF” value is recorded as “neither compound 8a nor budesonide affect” and the “number of neutrophils in BALF” value is listed as “neither compound 8a nor budesonide affect”. Moreover, the “AHR to methacholine compared with asthmatic mice treated with vehicle” value in assay [3] is “significantly lower”. Also, the “airway mucus production (PAS-stained cells)” value in assay [4] is “no effect”.
Consider `O=C([C@@H]1CSCCN1)N1CCN(c2nc(NCc3ccc(Cl)cc3Cl)c3cccnc3n2)CC1` [compound 6b, reference compound], for which the IC50 stood at 0.489 µM at CCR4 ([125I]-C27, read-out: IC50, competitive binding with C27 to CCR4); 0.104 µM on CCR4 ([125I]-CCL17, read-out: IC50, competitive binding with CCL17 to CCR4); 0.36 µM on CCR4 ([125I]-CCL22, read-out: IC50, competitive binding with CCL22 to CCR4).
